Data on one compound can be found in patent publication US10966995B2, “Use of secoisolariciresinol diglucosides (SDGS) and related compounds for protection against radiation and chemical damage” (THE TRUSTEES OF THE UNIVERSITY OF PENNSYLVANIA, priority 2014, dated 2021).

The subject of assay [1] is murine primary lung endothelial cells. Nature of the assay: Morphological detection of apoptotic cells, endothelial cells. The note with it: SDG 50 μM pre-treatment; irradiated; 24 h; IR alone 15.1%. Format: cell-based, mouse. As for the experimental part:
Fibroblasts and endothelial cells were isolated from C57/bl6 mouse. For fibroblast isolation, mouse lungs were harvested, minced, and incubated with dispase (2 mg/ml) for 45 minutes. Pieces were plated out and fibroblasts were cultured as described previously and used between passages 3 and 10. Pulmonary microvascular endothelial cells (PMVEC) were isolated from murine lungs as described previously. Briefly, freshly harvested mouse lungs were treated with collagenase followed by isolation of cells by adherence to magnetic beads coated with mAb to platelet endothelial cell adhesion molecule (PECAM). […]
Apoptotic cells are morphologically characterized by condensation of nucleus and cytoplasm, membrane blebbing, cell shrinkage, and breakdown of nuclear DNA, first in large segments and subsequently in nucleosomal fragments and finally formation of well-enclosed apoptotic bodies. Percentage of cells undergoing apoptosis was determined microscopically from the slides used for micronuclei detection (cytogenetic damage). At least, 500 cells were counted for each experiment (experiment done twice) and percent apoptotic cells were determined as follows: % Cell Death=Na/Nt×100, where Na is the number of cells with apoptotic bodies and Nt is the total number of cells analyzed. Gene Expression Analysis by Quantitative Real Time PCR (qPCR)

The subject of assay [2] is murine primary lung cells (epithelial cells, endothelial cells and WT fibroblasts). Description: γ-H2AX flow cytometry (FACS) in irradiated primary lung cells. Conditions: SDG 50 μM 6 h pre-treatment; 2 Gy; all cell types. It is filed as cell-based, mouse. On the procedure: Fibroblasts and endothelial cells were isolated from C57/bl6 mouse. For fibroblast isolation, mouse lungs were harvested, minced, and incubated with dispase (2 mg/ml) for 45 minutes. Pieces were plated out and fibroblasts were cultured as described previously and used between passages 3 and 10. Pulmonary microvascular endothelial cells (PMVEC) were isolated from murine lungs as described previously. Briefly, freshly harvested mouse lungs were treated with collagenase followed by isolation of cells by adherence to magnetic beads coated with mAb to platelet endothelial cell adhesion molecule (PECAM). Epithelial cells (C10) cells were originally derived from a normal BALB/c mouse lung explant and are non-tumorigenic, contact-inhibited, and have alveolar type 2 cell features at early passage.
For FACS analysis, cells were trypsinized and washed with PBS. Cells were then fixed (Fix/Perm buffer, eBioscience), for 45 minutes and washed thereafter using permeabilization wash buffer (BioLegend, USA). […] Cells were washed again with wash buffer and analyzed. The CyAn ADP (Advanced Digital Processing) flow cytometer (Dako, Denmark) Coulter, Fullerton, Calif.) was used to measure γ-H2AX and positive cells were quantified using Summit Software (Dako, Denmark).

On to `COc1cc(C[C@@H](CO[C@@H]2O[C@H](CO)[C@@H](O)[C@H](O)[C@H]2O)[C@H](CO[C@@H]2O[C@H](CO)[C@@H](O)[C@H](O)[C@H]2O)Cc2ccc(O)c(OC)c2)ccc1O` [SDG, secoisolariciresinol diglucoside], for which, in assay [1], the Apoptotic cells was 10.71%±1.45. In assay [2], the “Number of γ-H2AX positive cells (flow cytometry)” value was “significantly abrogated”.
